According to patent US6767741B1, “Metal binding compounds and their use in cell culture medium compositions” (Invitrogen Corporation, priority 1999, dated 2004):

Experiments:
Type in all cases: cell-based
Settings in all cases: third passage
293 cells = assay: Growth of 293 cells in transferrin-free 293 SFM with metal binding compounds
Method: Semi-confluent adherent cultures of 293 Cells (ATCC, CRL 1573) are readily adapted to suspension culture. The cells are first detached with a solution of Trypsin-EDTA (0.05% Trypsin, 0.53 mM Na4EDTA), and then resuspended in conventional medium supplemented with 10% FBS to inhibit the trypsin. The resuspended cells are centrifuged at 200×g for five minutes. The cell pellet is resuspended in 293 SFM (available from Life Technologies, Rockville, Md.) the formulation of which is described in WO 98/08934 which is specifically incorporated herein by reference. Alternatively, the cells may be detached with Versene (Na4EDTA, 0.53 mM) and resuspended in 293 SFM.
The initial seeding density of the 293 cells after conversion to suspension culture is 1×10^6 cells/mL. The cells are shaken on a rotary shaker at 150 rpm in a 37° C. incubator equilibrated with 8% CO2-92% air. When the cells reach a density of 1.5×10^6 cells/mL they are diluted with 293 SFM to a density of 3.0×10^5 cells/mL. Because 293 cells have a tendency to aggregate, the cells may be vortexed vigorously for approximately 45 seconds to obtain a predominantly single cell suspension at the time of passaging and counting. After several passages in suspension culture, the maximum achievable density may be determined.
The ability of metal binding compounds to support cellular growth was evaluated using 293 cells maintained in 293 SFM (Life Technologies, Rockville, Md.) without transferrin or metal binding compound. Stock cultures containing 5 μg/mL human holo-transferrin were prepared in 293 SFM. For metal binding compound evaluation, 293 cells were established in 125 mL shaker flasks at an initial viable seeding density of 2×10^5 cells/mL in a final volume of 20 mL. All cultures were maintained at 37° C. in humidified air containing 8% CO2. To eliminate transferrin carry-over effects, cells were subcultured at 4 day intervals for a total of three passages. At each subculturing, cells were seeded at a density of 2×10^5 cells/mL. Positive control cultures contained 5 μg/mL human holo-transferrin while negative control cultures were established in the absence of either transferrin or metal binding compound. Metal binding compound stocks were prepared at 0.1M-0.2M in ddH2O and solubilized when necessary using 5N NaOH or HCl. Iron complexes were established using 0.2M metal binding compound and iron stocks mixed 1:1 (v/v) and incubated for 5-10 minutes at 22° C. All solutions containing metal binding compounds were filter sterilized using a 0.22 μm Millex-GV filter prior to addition to transferrin and serum-free media.
In most cases, metal binding compounds were evaluated either alone or in combination with ferric chloride or ferrous sulfate at 25 μM, 50 μM and 100 μM. When used in combination, the metal binding compounds were used in equimolar concentration with iron ions. Values in the table represent the mean percentage of control growth for duplicate cultures determined at the third passage.
(§1) When added to the medium formulation un-complexed, the metal binding compound is listed alone, when added as a complex with a transition metal, the source of the transition metal is listed with the metal binding compound.

CHO cells = assay: Growth of CHO cells in transferrin-free CD CHO medium with metal binding compounds
Method: The ability of metal binding compounds to support cellular growth in the absence of transferrin was evaluated using CHO cells maintained in CD CHO medium (Life Technologies, Rockville, Md., the formulation of which is described in WO 98/08934). Stock cultures containing 5 μg/mL human holo-transferrin were prepared in CD CHO medium. For metal binding compound evaluation, CHO cells were established in 125 mL shaker flasks at an initial viable seeding density of 1×10^5 cells/mL in a final volume of 20 mL. All cultures were maintained at 37° C. in humidified air containing 8% CO2. To eliminate transferrin carry-over effects, cells were subcultured at 4 day intervals for a total of three passages. Positive control cultures contained 5 μg/mL human holo-transferrin while negative control cultures were established in the absence of either transferrin or metal binding compound. Metal binding compound stocks were prepared at 0.1M-0.2M in ddH2O and solubilized when necessary using 5N NaOH or HCl. Iron complexes were established using 0.2M metal binding compound and iron stocks mixed 1:1 (v/v) and incubated for 5-10 minutes at 22° C. All solutions containing metal binding compounds were filter sterilized using a 0.22 μm Millex-GV filter prior to addition to transferrin and serum-free media.
(§2) In most cases, metal binding compounds were evaluated either alone or in combination with ferric chloride or ferrous sulfate at 25 μM, 50 μM and 100 μM. Values in the table represent the mean percentage of control growth for duplicate cultures determined at the third passage.
as §1, with “The ability of various metal binding compounds to substitute for transferrin in the culture of CHO cells was determined. When” for “When”

Sp2/0 cells = assay: Growth of Sp2/0 cells in transferrin-free CD Hybridoma medium with metal binding compounds
Method: The ability of iron metal binding compounds to support cellular growth in the absence of transferrin was evaluated using Sp2/0 cells maintained in CD Hybridoma medium (Life Technologies, Rockville, Md.). Stock cultures containing 5 μg/mL human holo-transferrin were prepared in CD Hybridoma medium. For metal binding compound evaluation, Sp2/0 cells were established at an initial viable cell density of 0.5×10^5 cells/mL in stationary culture using 75 cm^2 tissue culture flasks in a final volume of 20 mL. All cultures were maintained at 37° C. in humidified air containing 8% CO2. To eliminate transferrin carry-over effects, cells were subcultured at the same seeding density at 4 day intervals for a total of three passages. Positive control cultures contained 5 μg/mL human holotransferrin while negative control cultures were established in the absence of either transferrin or metal binding compound. Metal binding compound stocks were prepared at 0.1M-0.2M in ddH2O and solubilized when necessary using 5N NaOH or HCl. Iron complexes were established using 0.2M metal binding compound and iron stocks mixed 1:1 (v/v) and incubated for 5-10 minutes at 22° C. All solutions containing metal binding compounds were filter sterilized using a 0.22 μm Millex-GV filter prior to addition to transferrin and serum-free media.
as §2, §1

[1] = 25 μM, control = 5 μg/mL human holo-transferrin, duplicate cultures
[2] = 50 μM, control = 5 μg/mL human holo-transferrin, duplicate cultures
[3] = 100 μM, control = 5 μg/mL human holo-transferrin, duplicate cultures
[4] = 5 μM, control = holo-transferrin
[5] = 10 μM, control = holo-transferrin
[6] = 20 μM, control = holo-transferrin

Structure (SMILES) | mean percentage of control growth (293 cells; [1]) | mean percentage of control growth (293 cells; [2]) | mean percentage of control growth (293 cells; [3]) | mean percentage of control growth (CHO cells; [1]) | mean percentage of control growth (CHO cells; [2]) | mean percentage of control growth (CHO cells; [3]) | mean percentage of control growth (Sp2/0 cells; [1]) | mean percentage of control growth (Sp2/0 cells; [2]) | mean percentage of control growth (Sp2/0 cells; [3]) | mean percentage of control growth (293 cells; [4]) | mean percentage of control growth (293 cells; [5]) | mean percentage of control growth (293 cells; [6]) | mean percentage of control growth (Sp2/0 cells; [4]) | mean percentage of control growth (Sp2/0 cells; [5]) | mean percentage of control growth (Sp2/0 cells; [6]) | mean percentage of control growth (CHO cells; [4]) | mean percentage of control growth (CHO cells; [5]) | mean percentage of control growth (CHO cells; [6])
[Cl][Fe]([Cl])[Cl].c1ccc(Nc2ccccn2)nc1 [2,2-Dipyridylamine · Ferric Chloride] | 118% | 96% | 101% | 40% | 48% | 65% | – | – | – | – | – | – | – | – | – | – | – | –
CCc1occc(=O)c1O [2-Ethyl-3-Hydroxy-4-Pyrone] | 59% | 120% | 126% | 9% | 60% | 113% | 0% | 75% | 116% | – | – | – | – | – | – | – | – | –
O=C(O)c1ccccn1.[Cl][Fe]([Cl])[Cl] [2-Pyridinecarboxylic Acid · Ferric Chloride] | – | – | – | 88% | 89% | 100% | 0% | 30% | 48% | – | – | – | – | – | – | – | – | –
[Cl][Fe]([Cl])[Cl].[O-][n+]1cccc(O)c1 [3-Hydroxypyridine-N-Oxide · Ferric Chloride] | 77% | 72% | 81% | 77% | 66% | 101% | 55% | 54% | 57% | – | – | – | – | – | – | – | – | –
Cc1ncc(CO)c(C(=O)O)c1O.[Cl][Fe]([Cl])[Cl] [4-Pyridoxic Acid · Ferric Chloride] | 109% | 85% | 99% | 55% | 63% | 100% | 40% | 73% | 76% | – | – | – | – | – | – | – | – | –
NC(CC(=O)O)C(=O)O.[Cl][Fe]([Cl])[Cl] (stereo not drawn) [Aspartic Acid · Ferric Chloride] | 81% | 86% | 100% | 77% | 89% | 112% | – | – | – | – | – | – | – | – | – | – | – | –
NC(CS)C(=O)O.O=S(=O)([O-])[O-].[Fe+2] (stereo not drawn) [Cysteine · Ferrous Sulfate] | – | – | – | 83% | 64% | 45% | 85? % | 79% | 67% | – | – | – | – | – | – | – | – | –
CC(=O)N(O)CCCCCNC(=O)CCC(=O)N(O)CCCCCNC(=O)CCC(=O)N(O)CCCCCN.CS(=O)(=O)O.[Cl][Fe]([Cl])[Cl] [Deferoxamine Mesylate · Ferric Chloride] | – | – | – | – | – | – | – | – | – | 101% | 120% | 127% | 0% | 0% | 0% | 50% | 74% | 52%
O=C(O)CN(CCN(CC(=O)O)CC(=O)O)CCN(CC(=O)O)CC(=O)O.O=S(=O)([O-])[O-].[Fe+2] [Diethylenetriamine Penta-Acetic Acid · Ferrous Sulfate] | 77% | 107% | 85% | 135% | 137% | 147% | 54% | 90% | 91% | – | – | – | – | – | – | – | – | –
[Cl][Fe]([Cl])[Cl] [Ferric Chloride, reference compound] | 87% | 91% | 109% | 56% | 85% | 101% | 55% | 73% | 74% | – | – | – | – | – | – | – | – | –
O=c1cc(CO)occ1O.[Cl][Fe]([Cl])[Cl] [Kojic Acid · Ferric Chloride] | – | – | – | 89% | 88% | 85% | 0% | 0% | 0% | – | – | – | – | – | – | – | – | –
O=c1cc(CO)occ1O [Kojic Acid] | – | – | – | 0% | 0% | 0% | 0% | 0% | 0% | – | – | – | – | – | – | – | – | –
O=C(O)c1ccc[n+]([O-])c1.[Cl][Fe]([Cl])[Cl] [Nicotinic Acid-N-Oxide · Ferric Chloride] | 104% | 80% | 79% | 60% | 84% | 105% | – | – | – | – | – | – | – | – | – | – | – | –
OC[C@@H](O)[C@@H](O)[C@H](O)[C@@H](O)CO.[Cl][Fe]([Cl])[Cl] [Sorbitol · Ferric Chloride] | – | – | – | 100% | 107% | 112% | 94% | 55% | 60% | – | – | – | – | – | – | – | – | –
